{
  "source": "paper PMC11831592",
  "about": "“Repurposing Linezolid in Conjunction with Histone Deacetylase Inhibitor Access in the Realm of Glioblastoma Therapies” (Journal of Medicinal Chemistry, 2025)",
  "key": {"[1]": {"system": "PT#3-R TMZ-resistant GBM cell line", "experiment": "cells", "assay_type": "cell-based", "settings": "MTT", "experimental": "The cytotoxic effects of these compounds were assessed using the MTT assay (Table 1 and Supporting Information IV).\nMTT assay was employed to evaluate the cytotoxicity of the synthesized compound against resistant GBM cells. The MTT (3-(4,5-dimethylthiazol-2-yl)-2,5-diphenyltetrazolium bromide, catalog no. AM0818-0005) powder was purchased from BIONOVAS (Ontario, Canada). The MTT was prepared at 10 mg/mL stock with ultrapure water and then stored at −20 °C. […] Before the experiment, the MTT stock was 10-fold diluted with the culture medium and then incubated with cells for 30 min. After the incubation, the MTT medium was discarded and added 300 μL of dimethyl sulfoxide (DMSO, cat. no. D2650, Sigma-Aldrich, MO, USA) to dissolve the cells."}, "T98G (MGMT-positive)": {"system": "T98G (MGMT-positive)", "experiment": "CCK8 cell proliferation assay, T98G", "assay_type": "cell-based", "settings": "Homo sapiens, CCK8, 72 h", "experimental": "(§1) Cell viability and drug cytotoxicity were determined by a CCK-8 kit (Cell Counting Kit-8, CK04-13, MD, USA) (CCK8, C0005, Target Molecule Corp., MA, USA) reagent. Cells were seeded 2 × 10^3 per well in the 96-well plate for 24 h, followed by treating at different concentrations of compounds for 72 h. Before the experiment, CCK8 was 10-fold diluted with the culture medium and then incubated with cells for 30 min. Finally, the OD was 450 nm absorbance and calculated for cell viability."}, "CT-2A-R": {"system": "CT-2A-R", "experiment": "CCK8 cell proliferation assay, CT-2A-R", "assay_type": "cell-based", "settings": "Mus musculus, CCK8, 72 h", "experimental": "as §1"}, "[2]": {"system": "histones H3 and H4 in U87MGR GBM cells", "experiment": "Western blot of histone H3 and H4 acetylation", "assay_type": "cell-based, human", "settings": "10 μM, within 1 h", "experimental": "(§2) The experimental procedure was performed as described in our previous study.[41] On the day prior to the experiment, […] cells were seeded into each well of a 6-well plate. The following day, the cells were washed twice with PBS and treated with 10 μM compound 1. The acetylation status of histones H3 and H4, DNA repair, and protein stability assay were assessed at 0–24 h post-treatment. The antibody models and dilution ratios used are detailed in Table S1. Protein image collection and quantification were done by the ChemiDoc Touch Imaging System (Cat. No. 12676029, Bio-Rad Laboratories, Inc., CA, USA)."}, "[3]": {"system": "DNA HR repair in U87MG cells", "experiment": "Homologous recombination repair assay", "assay_type": "cell-based, human", "settings": "increasing drug concentrations", "experimental": "For the DNA, HR repair assay continued to use our previous study.[30] U87MG cells were cotransfected at a 2:1 ratio using the […] reporter and DsRed-Monomer plasmids. Cells were harvested 2 days after transfection and subjected to flow cytometry analysis by a Guava EasyCyte System. Only DsRed-positive cells were analyzed for HR and NHEJ efficiencies to circumvent possible differences in transfection efficiencies. Data were analyzed to reveal the percentage of GFP-positive cells relative to those of DsRed-positive cells. Data were set to 1% of the background level of GFP-positive cells in every internal control."}, "[4]": {"system": "phospho-ATM, CtIP, RPA32, and RAD51 in PT#3-R GBM cells", "experiment": "Western blot of DNA repair proteins", "assay_type": "cell-based, human", "settings": "72 h", "experimental": "as §2, with “The acetylation status of histones H3 and H4, DNA repair, and protein stability assay were assessed at 0–24 h post-treatment.” left out"}, "CT-2A astrocytoma cells": {"system": "CT-2A astrocytoma cells", "experiment": "Orthotopic CT-2A tumor model, IVIS", "assay_type": "in vivo, mouse", "settings": "10 mg/kg intraperitoneally", "experimental": "Animals were imaged using an IVIS to monitor tumor growth and target expression changes. Initially, animals were anesthetized with isoflurane prior to imaging to minimize movement artifacts. D-luciferin (150 mg/kg) was then administered via an intraperitoneal injection. After 60 s, animals were positioned on the imaging platform, and images were acquired with a 10-s exposure. Experimental data were collected and quantified for fluorescence or bioluminescence signals by using Living Image software in the IVIS system. After each imaging session, animal ID, imaging parameters, and imaging time were recorded for subsequent analysis.\n(§3) For orthotopic inoculation, CT-2A cells (1 × 10^5) or CT-2A-R (2 × 10^5) were suspended in 4 μL of DMEM and implanted into the brain of B6 mice. PT#3-R cells (5 × 10^5) were suspended in 4 μL of DMEM and implanted into the brain of SCID mice. After cell implantation, mice were monitored daily for survival, and their body weight was measured every 3 days starting from the seventh day. The oral vehicle consisted of 40% ethyl oleate, 12% lecithin, 20% propylene glycol, and 28% Triton X-100. Mice were administered 5 μL of vehicle per gram of body weight along with 50 mg/kg TMZ or a combination of TMZ and compound 1. […] Upon the natural death of the mice, brains were extracted and entrusted to BioTools for sectioning and HE staining."}, "PT#3-R GBM cells": {"system": "PT#3-R GBM cells", "experiment": "Orthotopic PT#3-R transplant model, survival and HE staining", "assay_type": "in vivo, mouse", "experimental": "as §3, with “[…] […]” for “The oral vehicle consisted of 40% ethyl oleate, 12% lecithin, 20% propylene glycol, and 28% Triton X-100. Mice were administered 5 μL of vehicle per gram of body weight along with 50 mg/kg TMZ or a combination of TMZ and compound 1.”"}},
  "data": [
    {"smiles": "O=C(/C=C/c1ccc(CNC[C@H]2CN(c3ccc(N4CCOCC4)c(F)c3)C(=O)O2)cc1)NO", "note": "[compound 1, (S,E)-3-(4-((((3-(3-Fluoro-4-morpholinophenyl)-2-oxooxazolidin-5-yl)methyl)ami-no)methyl)phenyl)-N-hydroxyacrylamide]", "values": [
      {"measurement": "IC50", "setting": "[1]; Homo sapiens, 72 h", "result": "12.1 ± 1.48", "unit": "µM"},
      {"measurement": "cytotoxic effect on resistant GBM cells", "setting": "[1]; 20 μM and above", "result": "significant cytotoxic effect"},
      {"measurement": "IC50", "setting": "T98G (MGMT-positive)", "result": "30.6 ± 0.56", "unit": "µM"},
      {"measurement": "IC50", "setting": "CT-2A-R", "result": "8.27 ± 1.39", "unit": "µM"},
      {"measurement": "acetylation in histones H3 and H4", "setting": "[2]", "result": "significant induction of acetylation"},
      {"measurement": "DNA HR repair capability", "setting": "[3]", "result": "substantial decrease in DNA HR repair capability"},
      {"measurement": "CtIP, RPA32 and RAD51 protein expression", "setting": "[4]", "result": "significant suppression"},
      {"measurement": "phosphorylation of ATM", "setting": "[4]", "result": "significant increase in the phosphorylation"},
      {"measurement": "growth of orthotopic tumors (IVIS)", "setting": "CT-2A astrocytoma cells", "result": "effectively inhibited the growth of orthotopic tumors"},
      {"measurement": "survival (Kaplan-Meier)", "setting": "PT#3-R GBM cells; PT#3-R in SCID mice, 10 or 20 mg/kg with 10 mg/kg TMZ, intraperitoneal every 3 days from day 7", "result": "extend the survival rate"},
      {"measurement": "TMZ-resistant GBM cell growth in the brain (HE staining)", "setting": "PT#3-R GBM cells; PT#3-R, post-mortem brain tissue sections", "result": "effective inhibition of TMZ-resistant GBM cell growth in the brain"}
    ]}
  ]
}
